Source: ChEMBL document CHEMBL4402510, “Caprazamycins: Promising lead structures acting on a novel antibacterial target MraY” (Eur J Med Chem, 2019)
Values after ≈ are worked out from the molar mass of the structure shown.

Experiments:
Type in all cases: functional
[1] = tested on: Mycobacterium avium subsp. paratuberculosis; assay: Antibacterial activity against Mycobacterium avium subsp. paratuberculosis ATCC 43015
[2] = tested on: Mycobacterium tuberculosis; assay: Antibacterial activity against Mycobacterium tuberculosis Kurono
Mycolicibacterium vaccae = assay: Antibacterial activity against Mycobacterium vaccae ATCC 15483
[3] = tested on: Mycolicibacterium smegmatis; assay: Antibacterial activity against Mycobacterium smegmatis ATCC 607
[4] = tested on: Mycobacterium tuberculosis; assay: Antibacterial activity against Mycobacterium tuberculosis JCM 6384
Mycolicibacterium phlei = assay: Antibacterial activity against Mycobacterium phlei
[5] = Antibacterial activity against Mycobacterium avium subsp. avium ATCC 25291
Bacillus subtilis = assay: Antibacterial activity against Bacillus subtilis PCI 219
Staphylococcus aureus [6] = assay: Antibacterial activity against Staphylococcus aureus FDA 209P
Streptococcus pneumoniae = assay: Antibacterial activity against Streptococcus pneumoniae PCI 602
[7] = tested on: Mycobacterium tuberculosis; assay: Antibacterial activity against Mycobacterium tuberculosis H37Rv
Staphylococcus aureus [8] = assay: Antibacterial activity against methicillin resistant Staphylococcus aureus MS16526
Staphylococcus aureus [9] = assay: Antibacterial activity against methicillin resistant Staphylococcus aureus No. 5
Escherichia coli = assay: Antibacterial activity against Escherichia coli K-12
Haemophilus influenzae = assay: Antibacterial activity against Haemophilus influenzae ATCC 10211
Enterococcus faecalis [10] = assay: Antibacterial activity against Enterococcus faecalis SR7914 (VRE)
Enterococcus faecalis [11] = assay: Antibacterial activity against Enterococcus faecalis ATCC 29212

Compound	MIC [1]	MIC [2]	MIC (Mycolicibacterium vaccae)	MIC [3]	MIC [4]	MIC (Mycolicibacterium phlei)	MIC [5]	MIC (Bacillus subtilis)	MIC (Staphylococcus aureus [6])	MIC (Streptococcus pneumoniae)	MIC [7]	MIC (Staphylococcus aureus [8])	MIC (Staphylococcus aureus [9])	MIC (Escherichia coli)	MIC (Haemophilus influenzae)	MIC (Enterococcus faecalis [10])	MIC (Enterococcus faecalis [11])
CCCCCCCNC(=O)C1=CCN(C)[C@@H]([C@H](O[C@@H]2O[C@H](CN)[C@@H](O)[C@H]2O)[C@H]2O[C@@H](n3ccc(=O)[nH]c3=O)[C@H](O)[C@@H]2O)C(=O)N1C	25 µg/mL (≈ 38.2 µM)	1.56 µg/mL (≈ 2.38 µM)	> 100 µg/mL	25 µg/mL (≈ 38.2 µM)	50 µg/mL (≈ 76.4 µM)	> 100 µg/mL	25 µg/mL (≈ 38.2 µM)	> 100 µg/mL	6.25 µg/mL (≈ 9.55 µM)	> 100 µg/mL	3.13 µg/mL (≈ 4.78 µM)	> 100 µg/mL	> 100 µg/mL	> 100 µg/mL			
CCCCCCCCCCCCCCCCCCOC(=O)C1=CCN(C)[C@@H]([C@H](O[C@@H]2O[C@H](CN)[C@@H](O)[C@H]2O)[C@H]2O[C@@H](n3ccc(=O)[nH]c3=O)[C@H](O)[C@@H]2O)C(=O)N1C	3.13 µg/mL (≈ 3.86 µM)	3.13 µg/mL (≈ 3.86 µM)	> 100 µg/mL	> 100 µg/mL	6.25 µg/mL (≈ 7.72 µM)	> 100 µg/mL	12.5 µg/mL (≈ 15.4 µM)	3.13 µg/mL (≈ 3.86 µM)	25 µg/mL (≈ 30.9 µM)	> 100 µg/mL	6.25 µg/mL (≈ 7.72 µM)	50 µg/mL (≈ 61.7 µM)	50 µg/mL (≈ 61.7 µM)	> 100 µg/mL			
CN1C(=O)[C@H]([C@H](O[C@@H]2O[C@H](CN)[C@@H](O)[C@H]2O)[C@H]2O[C@@H](n3ccc(=O)[nH]c3=O)[C@H](O)[C@@H]2O)N(C)CC=C1C(=O)Nc1ccc(C2CCCCC2)cc1	0.78 µg/mL (≈ 1.09 µM)	1.56 µg/mL (≈ 2.18 µM)	25 µg/mL (≈ 35 µM)	1.56 µg/mL (≈ 2.18 µM)	0.39 µg/mL (≈ 0.546 µM)	12.5 µg/mL (≈ 17.5 µM)	1.56 µg/mL (≈ 2.18 µM)	100 µg/mL (≈ 140 µM)	100 µg/mL (≈ 140 µM)	12.5 µg/mL (≈ 17.5 µM)	1.56 µg/mL (≈ 2.18 µM)	0.39 µg/mL (≈ 0.546 µM)	100 µg/mL (≈ 140 µM)	6.25 µg/mL (≈ 8.74 µM)			
CCCCCCNC(=O)C1=CCN(C)[C@@H]([C@H](O[C@@H]2O[C@H](CN)[C@@H](O)[C@H]2O)[C@H]2O[C@@H](n3ccc(=O)[nH]c3=O)[C@H](O)[C@@H]2O)C(=O)N1C	0.78 µg/mL (≈ 1.22 µM)	1.56 µg/mL (≈ 2.43 µM)	100 µg/mL (≈ 156 µM)	50 µg/mL (≈ 78 µM)	1.56 µg/mL (≈ 2.43 µM)	100 µg/mL (≈ 156 µM)	12.5 µg/mL (≈ 19.5 µM)	25 µg/mL (≈ 39 µM)	> 100 µg/mL	> 100 µg/mL	3.16 µg/mL (≈ 4.93 µM)	> 100 µg/mL	> 100 µg/mL	> 100 µg/mL			
CCCCCCCCCCCCCCCC(=O)OC[C@@H]1[C@H](C(=O)N(C)C)[C@@H]([C@H]2O[C@@H](n3ccc(=O)[nH]c3=O)[C@H](O)[C@@H]2O)ON1CCCN															0.5 µg/mL (≈ 0.733 µM)	4 µg/mL (≈ 5.87 µM)	16 µg/mL (≈ 23.5 µM)
CCCCCCCCNC(=O)C1=CCN(C)[C@@H]([C@H](O[C@@H]2O[C@H](CN)[C@@H](O)[C@H]2O)[C@H]2O[C@@H](n3ccc(=O)[nH]c3=O)[C@H](O)[C@@H]2O)C(=O)N1C	25 µg/mL (≈ 37.4 µM)	0.78 µg/mL (≈ 1.17 µM)	100 µg/mL (≈ 150 µM)	6.25 µg/mL (≈ 9.35 µM)	12.5 µg/mL (≈ 18.7 µM)	100 µg/mL (≈ 150 µM)	3.13 µg/mL (≈ 4.68 µM)	> 100 µg/mL	100 µg/mL (≈ 150 µM)	> 100 µg/mL	3.3 µg/mL (≈ 4.93 µM)	> 100 µg/mL	3.13 µg/mL (≈ 4.68 µM)	> 100 µg/mL			
CCCCCCCCCCCCCNC(=O)C1=CCN(C)[C@@H]([C@H](O[C@@H]2O[C@H](CN)[C@@H](O)[C@H]2O)[C@H]2O[C@@H](n3ccc(=O)[nH]c3=O)[C@H](O)[C@@H]2O)C(=O)N1C	0.1 µg/mL (≈ 0.135 µM)	1.56 µg/mL (≈ 2.11 µM)	0.78 µg/mL (≈ 1.06 µM)	0.39 µg/mL (≈ 0.528 µM)	0.2 µg/mL (≈ 0.271 µM)	0.78 µg/mL (≈ 1.06 µM)	3.13 µg/mL (≈ 4.24 µM)	0.39 µg/mL (≈ 0.528 µM)	3.13 µg/mL (≈ 4.24 µM)	6.25 µg/mL (≈ 8.46 µM)	1.56 µg/mL (≈ 2.11 µM)	3.13 µg/mL (≈ 4.24 µM)	6.25 µg/mL (≈ 8.46 µM)	100 µg/mL (≈ 135 µM)			
CCCCCCCCCCCCCCCCCCCNC(=O)C1=CCN(C)[C@@H]([C@H](O[C@@H]2O[C@H](CN)[C@@H](O)[C@H]2O)[C@H]2O[C@@H](n3ccc(=O)[nH]c3=O)[C@H](O)[C@@H]2O)C(=O)N1C	0.78 µg/mL (≈ 0.948 µM)	1.56 µg/mL (≈ 1.9 µM)	3.13 µg/mL (≈ 3.8 µM)	12.5 µg/mL (≈ 15.2 µM)	0.78 µg/mL (≈ 0.948 µM)	25 µg/mL (≈ 30.4 µM)	1.56 µg/mL (≈ 1.9 µM)	0.78 µg/mL (≈ 0.948 µM)	6.25 µg/mL (≈ 7.59 µM)	> 100 µg/mL	1.56 µg/mL (≈ 1.9 µM)	6.25 µg/mL (≈ 7.59 µM)	6.25 µg/mL (≈ 7.59 µM)	> 100 µg/mL			
CCCCCCCCCCCNC(=O)C1=CCN(C)[C@@H]([C@H](O[C@@H]2O[C@H](CN)[C@@H](O)[C@H]2O)[C@H]2O[C@@H](n3ccc(=O)[nH]c3=O)[C@H](O)[C@@H]2O)C(=O)N1C	0.2 µg/mL (≈ 0.281 µM)	1.56 µg/mL (≈ 2.19 µM)	1.56 µg/mL (≈ 2.19 µM)	< 0.2 µg/mL	0.2 µg/mL (≈ 0.281 µM)	0.39 µg/mL (≈ 0.549 µM)	3.13 µg/mL (≈ 4.4 µM)	0.39 µg/mL (≈ 0.549 µM)	6.25 µg/mL (≈ 8.79 µM)	50 µg/mL (≈ 70.3 µM)	1.56 µg/mL (≈ 2.19 µM)	12.5 µg/mL (≈ 17.6 µM)	25 µg/mL (≈ 35.2 µM)	> 100 µg/mL			
